Laboratory results published in patent EP3502102A1, “STING INHIBITORS” (ECOLE POLYTECHNIQUE FEDERALE DE LAUSANNE (EPFL), priority 2017, dated 2019).
Where a chain is given by its changes, count along the chain named.

Experiments:
hsSTING = target: T1, hsSTING (Homo sapiens, UniProt Q86WV6); experiment: Gel-based analysis of C-176-22 labelling in HEK293T cells expressing human STING; type: binding; settings: HEK293T cells that expressed human STING
T1 construct: expressed in transfected cells; host or cells: HEK293T
T1 sequence (Q86WV6 whole entry): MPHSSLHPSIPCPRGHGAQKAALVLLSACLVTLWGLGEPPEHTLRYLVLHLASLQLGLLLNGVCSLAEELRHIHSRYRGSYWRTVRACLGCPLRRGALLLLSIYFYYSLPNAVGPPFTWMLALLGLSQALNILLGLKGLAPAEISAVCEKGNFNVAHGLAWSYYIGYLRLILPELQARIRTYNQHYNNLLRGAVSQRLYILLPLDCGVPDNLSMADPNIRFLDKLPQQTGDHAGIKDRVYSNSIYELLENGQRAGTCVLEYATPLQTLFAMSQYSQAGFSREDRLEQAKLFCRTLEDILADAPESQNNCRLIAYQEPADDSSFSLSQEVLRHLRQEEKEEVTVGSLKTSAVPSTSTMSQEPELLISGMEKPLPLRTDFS
Protocol: (§1) Reporter activity was measured 16 h after compound treatment. A nonlinear regression analysis was performed. […] Cytokine levels were normalized to DMSO-treated control cells. […] Nuclei were stained with DAPI. […] Depicted genes were measured by RT-qPCR. […] 16 h later Luciferase activity was measured. […] Flag-STING was immunoprecipitated and analysed by autoradiography.
HEK293T cells expressing Flag-STING were incubated with C-176-22 (0.25 µM) in serum free media, collected in PBSs and lysed by repetitive freezing and thawing. […] In-gel fluorescence was visualized using Fusion FX (Vilber Lourmat) and analysed by Fusion capt advance acquisition software.
We next sought to elucidate the molecular details of the interaction between C-178 and the TM part of STING. […] Having verified that C-176-22 is still active (Fig. 7), HEK293T cells expressing STING were exposed to C-176-22, lysed, coupled to a tetramethylrhodamine (TAMRA-)azide tag and C-176-22-modified proteins were visualized using in-gel fluorescence scanning. […]

mmSTING [1] = experiment: Gel-based analysis of C-176-22 labelling (click chemistry, in-gel fluorescence) in HEK293T cells; type: binding, mouse; settings: for labelling of STING mutant: 0.25 µM; for labelling of other protein targets / proteome-wide selectivity: whole cell lysate, C-176-22 0.25µM
Protocol: as §1
(§2) HEK293T cells expressing Flag-STING were incubated with C-176-22 (0.25 µM) in serum free media, collected in PBSs and lysed by repetitive freezing and thawing. 43 µl of lysed cells were treated with freshly prepared "click reagent" mixture containing tris(benzyltriazolylmethyl)amine (TBTA) (3 µl/sample, 3 mM in 1:4 DMSO:t-ButOH), tetramethylrhodamine (TAMRA) azide (2 µl/sample, 1.25 mM in DMSO), and freshly prepared CuSO4 (1 µl/sample) and tris-(2-carboxyethyl)phosphine hydrochloride (TCEP) (1µl/sample) and incubated at room temperature for 1 h. The reaction was quenched by addition of reducing sample buffer. In-gel fluorescence was visualized using Fusion FX (Vilber Lourmat) and analysed by Fusion capt advance acquisition software.
(§3) We next sought to elucidate the molecular details of the interaction between C-178 and the TM part of STING. Our SAR studies highlighted the importance of the nitrofuran motif for the activity of the discovered inhibitors. Given the strong electrophilic potential of this group, we suspected that C-178 might react with a TM residue generating a covalent interaction. […] To further test the hypothesis of covalent engagement of STING, we synthesized a derivative of C-176-22, which bears an alkyne group amenable for copper-catalyzed azide alkyne cycloaddition (Click Chemistry) and performed gel-based profiling studies (Fig. 3d). Having verified that C-176-22 is still active (Fig. 7), HEK293T cells expressing STING were exposed to C-176-22, lysed, coupled to a tetramethylrhodamine (TAMRA-)azide tag and C-176-22-modified proteins were visualized using in-gel fluorescence scanning. HEK293T cells without STING served as a control for assessing non-specific protein labelling. […] Based on the observed mass shift, we postulate a nitrobenzyl rearrangement-like reaction to generate covalent bonding between C-178 and STING (see below). […] We next sought to identify the residue through which C-178 achieves binding to STING. Among the naturally occurring amino acids, cysteine residues are well-known targets of electrophilic small molecules. […] In addition, binding to and inhibition of STING are two separable functions of C-178.

mmSTING [2] = target: T2, mmSTING (Mus musculus, UniProt Q3TBT3); experiment: as above; type: binding; settings: HEK293T expressing STING
T2 construct: expressed in transfected cells; host or cells: HEK293T (lentiviral transduction, induced overnight)
T2 sequence (Q3TBT3 1-378): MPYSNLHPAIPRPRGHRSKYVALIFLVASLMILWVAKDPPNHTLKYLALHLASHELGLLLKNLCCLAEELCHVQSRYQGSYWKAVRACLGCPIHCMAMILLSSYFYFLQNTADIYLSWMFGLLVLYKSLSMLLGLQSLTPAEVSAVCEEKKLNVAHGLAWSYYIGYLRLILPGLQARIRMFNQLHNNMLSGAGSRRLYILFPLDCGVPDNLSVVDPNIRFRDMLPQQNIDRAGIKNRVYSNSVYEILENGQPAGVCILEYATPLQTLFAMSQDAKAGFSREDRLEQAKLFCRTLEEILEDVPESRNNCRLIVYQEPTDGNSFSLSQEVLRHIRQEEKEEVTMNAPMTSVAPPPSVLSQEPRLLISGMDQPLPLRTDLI
Protocol: as §1, §2, §3

mmSTING [3] = target: T3, mmSTING (Mus musculus, UniProt Q3TBT3, V27A); experiment: as above; type: binding; settings: STING V27A; 0.25 µM
T3 construct: expressed in transfected cells; host or cells: HEK293T (lentiviral transduction, induced overnight)
T3 sequence (Q3TBT3 1-378 V27A): T2 sequence (Q3TBT3 1-378) with V27A
Protocol: as §1, §2, §3

STING = target: T4, STING (Mus musculus, UniProt Q3TBT3); experiment: IFN-beta luciferase reporter in HEK293T cells transfected with STING, alone or with a cyclic dinucleotide synthase; type: cell-based; set-up: expressed in transfected cells; host or cells: HEK293T; settings: HEK293T transfected with mmSTING, 16 h
T4 sequence (Q3TBT3 1-378): T2 sequence (Q3TBT3 1-378)
Protocol: as §1
HEK293T cells expressing murine STING with an N-terminal mCherry-tag ^28 were transfected using GeneJuice (Millipore) with a construct encoding for cyclic di-GMP synthase in conjunction with an IFN-• firefly luciferase reporter plasmid. 3 h after transfection cells were seeded in […] (Corning) coated with library compounds. For each compounds, a 40 nl volume was selected to obtain a concentration of 10 µM in the assay plates. The amount of DMSO in each well was normalised to 0.1%. After overnight treatment, cells were lysed in lysis buffer (25 mM Tris-phosphate (pH 7.8), 2 mM DTT, 2 mM 1,2-diaminocyclohexane-N,N,N',N'-tetraacetic acid, 10% glycerol, 1% Triton® X-100) for 20 min followed by the addition of firefly luciferase. Reporter activity was measured using a Tecan Infinite plate reader. The screen was performed using on ∼ 20.000 compounds from a chemically diverse compound collection available at the BSF core facility at EPFL.
In these cells, transient transfection of vectors encoding for cyclic di-GMP synthase (cdG-Syn) and an IFN-• reporter leads to robust induction of firefly luciferase activity. We used this system to perform a high-throughput chemical screen with a library of ∼ 20.000 small molecule compounds (Fig. 6b). To increase the selectivity of candidate compounds against the STING pathway, hits from the primary screen were counter-screened for their effect on RIG-I-driven activation of the IFN-• reporter. […] To further validate the two small molecules, we treated wild-type HEK293T cells with C-178 and C-176, in which STING was either expressed alone or in conjunction with cdG-Syn. […] We next conducted a limited structure-activity relationship (SAR) analysis. Since both C-178 and C-176 share a characteristic nitrofuran moiety, we prepared analogues of C-176/8 in which this structural motif was substituted (Fig. 1c).

labelling of human STING (hsSTING): hardly detectable, if at all | labelling of STING, in-gel fluorescence signal (37 kDa) (mmSTING [2]): marked, dose-dependent signal | labelling of STING mutant (mmSTING [3]): efficiently interacted | inhibitory activity, IFN-• luciferase reporter (STING): still active | inhibitory activity, IFN-• luciferase reporter (STING; listed as C176L): inhibitory active
SMILES: C#Cc1ccc(NC(=O)c2ccc([N+](=O)[O-])o2)cc1 [C-176-22]
labelling band in cells without STING (mmSTING [1]; HEK293T cells that lacked STING expression): not detectable | labelling of STING mutant (mmSTING [1]; cysteine-to-alanine or cysteine-to-serine mutation at position 91): completely abolished | labelling of STING mutant (mmSTING [1]; mutated C88): did not influence | labelling of other protein targets / proteome-wide selectivity (mmSTING [1]): negligible labelling | labelling of other protein targets / proteome-wide selectivity (mmSTING [1]; listed as C176L): highly specifically labels mmSTING
